Test [1] concerns the target T1, PTP1B (human recombinant) (Homo sapiens, UniProt P18031).
T1 construct: purchased Enzo Life Sciences, Inc. (Lausen, Switzerland)
T1 sequence (P18031 1-435): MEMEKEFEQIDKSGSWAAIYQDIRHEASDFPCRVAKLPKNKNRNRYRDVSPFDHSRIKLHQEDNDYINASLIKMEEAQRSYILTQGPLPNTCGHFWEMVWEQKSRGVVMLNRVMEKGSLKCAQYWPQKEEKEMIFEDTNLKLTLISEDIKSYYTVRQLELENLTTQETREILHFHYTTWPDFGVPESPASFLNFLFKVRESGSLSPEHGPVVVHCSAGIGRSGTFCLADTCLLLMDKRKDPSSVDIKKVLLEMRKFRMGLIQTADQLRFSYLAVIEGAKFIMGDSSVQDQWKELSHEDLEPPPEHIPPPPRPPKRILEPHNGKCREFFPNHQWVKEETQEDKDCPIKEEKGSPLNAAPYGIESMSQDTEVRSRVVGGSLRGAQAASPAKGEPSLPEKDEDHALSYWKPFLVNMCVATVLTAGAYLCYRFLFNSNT
As to the kind of experiment: PTP1B inhibitory activity assay with p-NPP as substrate. The test is classed as biochemical. The following applies: for IC50: p-NPP 4 mM, pH 6.0, 37 °C, 30 min, means ± SD, n = 3, NA = no activity >50 μM, read-out: IC50 against PTP1B. The procedure: (§1) PTP1B inhibitory activity was measured using p-NPP as the substrate. A mixture consisting of p-NPP and PTP1B in a buffer containing 0.06 M citrate (pH 6.0), 0.1 M NaCl, 1 mM EDTA, and 1 mM DTT with or without a tested compound solution (prepared in the above buffer solution containing 30% dimethyl sulfoxide), was incubated at 37 °C for 30 min. The substrate was used at a concentration of 4 mM. The reaction was terminated by adding 20 µL of 10 M NaOH. The reaction mixture was blended by a microplate mixer for 5 min and the amount of produced p-nitrophenol was tested by measuring the absorbance at 405 nm. The blank was measured in the same way except adding a buffer solution instead of the enzyme.

Test [2] deals with T1, PTP1B (human recombinant). In words: Kinetic analysis of PTP1B inhibition (Lineweaver–Burk, secondary plot). The test is classed as biochemical. To be noted: for Inhibition type: Lineweaver–Burk, p-NPP 4, 8, 16 mM; for Ki: secondary plot of Lineweaver–Burk slopes. The procedure: as §1, with “enzyme. […] All compounds used for bioassay were confirmed the purity >98% by HPLC-PDA and ^1H NMR spectroscopic analyses.” for “enzyme.”
To elucidate the inhibition mode, the inhibition kinetics of compounds 1–5 were analyzed by the Lineweaver–Burk method with various substrate concentrations of p-NPP (4, 8, 16 mM). The initial reaction velocities were measured with and without the inhibitor.
(A) Lineweaver–Burk plots of compounds 1–5. The final concentration of compounds 1–5 was as follows: 1; 0, 1.0, 2.0, and 3.0 μM, 2; 0, 4.0, 6.0, and 8.0 μM, 3; 0, 1.3, 2.5, and 3.0 μM, 4; 0, 1.0, 2.0, and 3.0 μM, and 5; 0, 4.0, 6.0, and 8.0 μM. (B) The second plots of A.

Test [3] concerns the target T2, SHP-2 (human recombinant) (Homo sapiens, UniProt Q06124).
T2 construct: purchased Sigma-Aldrich Co., LLC; (St Louis, MO)
T2 sequence (Q06124 1-593): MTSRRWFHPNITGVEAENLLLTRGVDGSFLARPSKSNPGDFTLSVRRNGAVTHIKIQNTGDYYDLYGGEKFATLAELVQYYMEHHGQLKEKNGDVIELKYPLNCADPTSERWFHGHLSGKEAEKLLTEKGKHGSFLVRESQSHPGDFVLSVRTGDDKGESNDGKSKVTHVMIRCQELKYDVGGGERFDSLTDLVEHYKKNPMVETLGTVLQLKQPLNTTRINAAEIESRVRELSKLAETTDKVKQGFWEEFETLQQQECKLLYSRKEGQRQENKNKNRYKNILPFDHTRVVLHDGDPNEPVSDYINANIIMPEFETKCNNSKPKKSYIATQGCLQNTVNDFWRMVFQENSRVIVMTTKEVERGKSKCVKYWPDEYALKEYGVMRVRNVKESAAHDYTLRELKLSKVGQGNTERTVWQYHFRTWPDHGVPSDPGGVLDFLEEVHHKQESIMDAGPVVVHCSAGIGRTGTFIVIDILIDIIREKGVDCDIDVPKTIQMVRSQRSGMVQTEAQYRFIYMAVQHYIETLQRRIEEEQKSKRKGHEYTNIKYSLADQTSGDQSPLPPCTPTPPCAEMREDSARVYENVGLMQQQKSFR
As to the kind of experiment: SHP-2 inhibitory activity assay with p-NPP. The test is classed as biochemical. To be noted: mean ± SD, three experiments, read-out: Inhibition rate (%) SHP-2.

The target in test [4] is T3, T-cell protein tyrosine phosphatase (TCPTP, human recombinant) (Homo sapiens, UniProt P17706).
T3 construct: purchased Enzo Life Sciences, Inc. (Lausen, Switzerland)
T3 sequence (P17706 1-415): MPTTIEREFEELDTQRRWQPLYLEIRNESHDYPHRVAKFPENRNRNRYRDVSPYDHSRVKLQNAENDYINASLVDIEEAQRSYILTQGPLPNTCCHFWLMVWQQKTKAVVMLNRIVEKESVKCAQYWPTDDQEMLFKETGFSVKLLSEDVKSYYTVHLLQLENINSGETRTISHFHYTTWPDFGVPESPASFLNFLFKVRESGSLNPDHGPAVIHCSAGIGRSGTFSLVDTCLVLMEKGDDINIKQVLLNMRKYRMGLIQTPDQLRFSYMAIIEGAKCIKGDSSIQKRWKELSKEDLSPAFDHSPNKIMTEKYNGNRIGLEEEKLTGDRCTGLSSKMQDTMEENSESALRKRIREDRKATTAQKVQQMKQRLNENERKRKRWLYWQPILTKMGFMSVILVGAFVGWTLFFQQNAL
As to the kind of experiment: TCPTP inhibitory activity assay with p-NPP. The format is biochemical. The following applies: mean ± SD, three experiments, read-out: Inhibition rate (%) TCPTP.

For test [5], the target named is T4, Vaccinia H1-related phosphatase (VHR, human recombinant) (Homo sapiens, UniProt P51452).
T4 construct: purchased Enzo Life Sciences, Inc. (Lausen, Switzerland)
T4 sequence (P51452 whole entry): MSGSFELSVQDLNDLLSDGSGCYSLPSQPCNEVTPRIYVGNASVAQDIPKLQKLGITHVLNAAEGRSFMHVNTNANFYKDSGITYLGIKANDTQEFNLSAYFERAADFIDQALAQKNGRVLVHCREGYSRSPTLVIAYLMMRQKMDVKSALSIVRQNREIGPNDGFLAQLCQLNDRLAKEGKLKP
In words: biochemical. The following applies: read-out: Inhibition rate (%) VHR.

Test [6] deals with T5, SHP-1 (human recombinant) (Homo sapiens, UniProt P29350).
T5 construct: purchased Sigma-Aldrich Co., LLC; (St Louis, MO)
T5 sequence (P29350 whole entry): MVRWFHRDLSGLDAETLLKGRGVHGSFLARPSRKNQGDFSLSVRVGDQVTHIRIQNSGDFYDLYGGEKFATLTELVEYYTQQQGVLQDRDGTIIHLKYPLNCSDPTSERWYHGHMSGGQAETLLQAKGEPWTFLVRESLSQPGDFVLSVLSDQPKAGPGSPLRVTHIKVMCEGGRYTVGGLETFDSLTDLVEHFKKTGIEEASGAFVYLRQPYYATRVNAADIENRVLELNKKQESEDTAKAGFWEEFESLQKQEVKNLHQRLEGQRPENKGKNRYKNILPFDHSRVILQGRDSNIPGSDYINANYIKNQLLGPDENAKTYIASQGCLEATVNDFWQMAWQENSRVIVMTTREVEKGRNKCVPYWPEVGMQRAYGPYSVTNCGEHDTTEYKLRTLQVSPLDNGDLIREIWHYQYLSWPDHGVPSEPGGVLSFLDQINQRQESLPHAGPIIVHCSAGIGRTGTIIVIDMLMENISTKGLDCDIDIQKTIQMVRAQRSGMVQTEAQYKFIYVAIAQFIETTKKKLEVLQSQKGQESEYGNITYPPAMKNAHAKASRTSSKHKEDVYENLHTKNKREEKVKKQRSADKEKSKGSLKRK
In words: SHP-1 inhibitory activity assay with p-NPP. The test is classed as biochemical. To be noted: mean ± SD, three experiments, read-out: Inhibition rate (%) SHP-1.

Where [7] appears, read: mean ± SD, three experiments, read-out: Inhibition rate (%) PTP1B.

On to `COc1cc([C@H]2Oc3c(O)cc([C@H]4Oc5cc(O)cc(O)c5C(=O)[C@@H]4O)cc3[C@@H]2CO)ccc1O` [Compound 6, Silychristin B], for which the IC50 in test [1] turned out to be 23.9 ± 2.25 µM.
With `COc1cc([C@@H]2Oc3c(O)cc([C@H]4Oc5cc(O)cc(O)c5C(=O)[C@@H]4O)cc3[C@H]2CO)ccc1O` [Compound 5, Silychristin A], in test [2], the Inhibition type entry is reported as “Non-competitive”. In addition, the inhibitory constant (Ki) in test [2] is 3.95 µM. In addition, the inhibition at 20 µM in test [3] (20 μM) worked out at 48.6 ± 1.9%; in test [4] (20 μM), 32.2 ± 1.9%; in test [1] (20 μM, mean ± SD, three experiments, read-out: Inhibition rate (%) PTP1B), 89.2 ± 2.6%; in test [5], 67.5 ± 1.4%; in test [6] (20 μM) it was 25.9 ± 1.4%. The half-inhibitory concentration (IC50) in test [1] is 5.58 ± 0.33 µM.
In the case of `COc1cc([C@@H]2[C@H]3CO[C@@]4(O)C(=O)[C@@H]2C=C([C@H]2Oc5cc(O)cc(O)c5C(=O)[C@@H]2O)[C@@H]34)ccc1O` [Compound 9, Silydianin], the half-inhibitory concentration (IC50) in test [1] is over 50 µM.
For the compound `COc1cc([C@@H]2Oc3cc([C@H]4Oc5cc(O)cc(O)c5C(=O)[C@@H]4O)ccc3O[C@H]2CO)ccc1O` [Compound 2, Silybin B], in test [2], the Inhibition type result is recorded as “Non-competitive”. In addition, the Ki in test [2] turned out to be 4.05 µM. In addition, the inhibition at 12 µM in test [3] (12 μM) turned out to be 37.5 ± 2.2%; in test [4] (12 μM) it was 32.1 ± 2.3%; in test [1] (12 μM, mean ± SD, three experiments, read-out: Inhibition rate (%) PTP1B), 89 ± 2.1%; in test [5], 65.6 ± 4.2%; in test [6] (12 μM), 34.4 ± 1.9%. Further, the IC50 in test [1] was 5.65 ± 0.2 µM.
For `COc1cc([C@@H]2Oc3ccc([C@H]4Oc5cc(O)cc(O)c5C(=O)[C@@H]4O)cc3O[C@H]2CO)ccc1O` [Compound 4, Isosilybin B], in test [2], the Inhibition type entry was “Non-competitive”. Further, the Ki in test [2] worked out at 1.03 µM. The inhibition at 4 µM is 50.1 ± 1.5% in test [3]; 16.4 ± 1.5% in test [4]; 92.1 ± 1.7% in test [1] (setting [7]); 61.4 ± 3% in test [5]; 22.9 ± 2.1% in test [6]. Further, in test [1], the half-inhibitory concentration (IC50) amounted to 1.37 ± 0.22 µM.
Consider `COc1cc([C@H]2Oc3ccc([C@H]4Oc5cc(O)cc(O)c5C(=O)[C@@H]4O)cc3O[C@@H]2CO)ccc1O` [Compound 3, Isosilybin A], for which, in test [2], the Inhibition type entry is “Non-competitive”. Also, the Ki in test [2] worked out at 2.25 µM. Moreover, the inhibition at 6 µM in test [3] (6.0 μM) is 49 ± 2.1%; in test [4] (6.0 μM), 27.5 ± 0.8%; in test [1] (6.0 μM, mean ± SD, three experiments, read-out: Inhibition rate (%) PTP1B) it was 90.7 ± 1.1%; in test [5], 59.2 ± 2.4%; in test [6] (6.0 μM), 30.6 ± 1.8%. Moreover, in test [1], the half-inhibitory concentration (IC50) turned out to be 2.65 ± 0.13 µM.
As for `COc1cc(C2C3C=C(c4oc5cc(O)cc(O)c5c(=O)c4O)C4C2COC4(O)C3=O)ccc1O` (stereo not shown) [Compound 10, Dehydrosilydianin], the IC50 in test [1] is over 50 µM.
The same measure, in the same setting: with `COc1cc([C@@H]2Oc3c(O)cc(-c4oc5cc(O)cc(O)c5c(=O)c4O)cc3[C@H]2CO)ccc1O` [Compound 8, Dehydrosilychristin A] the figure was 7.18 ± 0.12 µM.
On to `COc1cc(C2C(C(=O)O)C=C(C3Oc4cc(O)cc(O)c4C(=O)C3O)C3C(=O)OCC32)ccc1O` (stereo not shown) [Compound 11, Silyamandin], for which, in test [1], the IC50 was 17.4 ± 0.67 µM.
With `COc1cc([C@H]2Oc3cc([C@H]4Oc5cc(O)cc(O)c5C(=O)[C@@H]4O)ccc3O[C@@H]2CO)ccc1O` [Compound 1, Silybin A], in test [2], the Inhibition type result is on record as “Non-competitive”. The Ki in test [2] stood at 1.25 µM. Moreover, the inhibition at 4 µM in test [3] came out at 32.7 ± 1.8%; in test [4], 15.7 ± 1.9%; in test [1] (setting [7]) it was 90.3 ± 0.9%; in test [5] it was 60.6 ± 2.2%; in test [6] it was 33.4 ± 0.4%. Besides, in test [1], the concentration for half-maximal inhibition (IC50) worked out at 1.54 ± 0.22 µM.
In the case of `COc1cc([C@@H]2Oc3c(O)ccc([C@H]4Oc5cc(O)cc(O)c5C(=O)[C@@H]4O)c3[C@H]2CO)ccc1O` [Compound 7, Isosilychristin A], the half-maximal inhibitory concentration (IC50) in test [1] worked out at 6.55 ± 0.09 µM.

For orientation: IC50 means the concentration that gives 50% inhibition. Usually Ki stands for the equilibrium dissociation constant of an inhibitor or competing ligand from its target. Broadly, the inhibition is the drop in the measured response relative to a control, in per cent.
